Source: patent US20260191838A1, “COMBINATIONS COMPRISING A MENIN-MLL INHIBITOR AND A BCL-2 INHIBITOR” (JANSSEN PHARMACEUTICA NV, priority 2022, published 2026)

What was measured:
[1] = test system: OCI-AML3 cells; experiment: Proliferation (spheroid) assay, OCI-AML3; format: cell-based; settings: Homo sapiens, OCI-AML-3, 192 h; 8 days; read-out: spheroid assay_OCI-AML3 IC50
Description: The anti-proliferative effect of menin/MLL protein/protein interaction inhibitor test compounds was assessed in human leukemia cell lines. The cell line MOLM14 harbors a MLL translocation and expresses the MLL fusion protein MLL-AF9, respectively, as well as the wildtype protein from the second allele. OCI-AML3 cells that carry the NPM1c gene mutation were also tested. […] KO-52 was used as a control cell line containing two MLL (KMT2A) wildtype alleles in order to exclude compounds that display general cytotoxic effects.
MOLM14 cells were cultured in RPMI-1640 (Sigma Aldrich) supplemented with 10% heat-inactivated fetal bovine serum (HyClone), 2 mM L-glutamine (Sigma Aldrich) and 50 μg/ml gentamycin (Gibco). KO-52 and OCI-AML3 cell lines were propagated in alpha-MEM (Sigma Aldrich) supplemented with 20% heat-inactivated fetal bovine serum (HyClone), 2 mM L-glutamine (Sigma Aldrich) and 50 μg/ml gentamycin (Gibco).
In order to assess the anti-proliferative effects, 200 MOLM14 cells, 200° C. […] Spheroid like growth was measured in real-time by live-cell imaging (IncuCyteZOOM, Essenbio, 4× objective) acquiring images at day 8. Confluence (%) as a measure of spheroid size was determined using an integrated analysis tool.
In order to determine the effect of the test compounds over time, the confluence in each well as a measure of spheroid size, was calculated. […]

[2] = test system: OCI-AML3 cells; experiment: In vitro proliferation (Cell Titer Glo), Compound 51 with decitabine and venetoclax, OCI-AML3; format: cell-based, human; design: Effect size (BIGL, HSA null model): scale not given here
Description: 3a) In Vitro Proliferation—Menin-MLL Inhibitor in Combination with a DNA Hypomethylating Agent (Decitabine) and a BCL2 Inhibitor (Venetoclax)
The effect of Compound 51 in combination with decitabine and venetoclax was determined in proliferation assays.
AML cell lines MOLM-13, OCI-AML3 and MV4-11 were purchased from DSMZ. MOLM-13 were grown in RPMI medium supplemented with 10% Fetal Bovine Serum (FBS) and 1% penicillin/streptomycin. MV4-11 cells were grown in IMDM medium supplemented with 10% FBS and 1% penicillin/streptomycin. OCI-AML3 cells were cultured in 80-90% alpha-MEM (without ribo- and deoxyribonucleosides)+10-20% FBS. All cell lines were cultured at 37° C. in 5% CO2 atmosphere.
AML cell lines (10×10^3 cells/well) were seeded in 96-well plates and grown for 6 days in serum (10%)-containing medium in the presence or absence of inhibitors at the indicated concentrations. Proliferation was analyzed by means of a Cell Titer Glo assay using the CellTiter 96 Aqueous One Solution Cell Proliferation Assay (Promega, Madison, WI, USA), according to the manufacturer's instructions. Data are mean with standard deviation from two to four independent experiments in technical triplicates.
R-based Biochemically Intuitive Generalized Loewe (BIGL) model implemented with a highest single agent (HSA) null model. Specifically, the BIGL methodology was applied to calculate drug-drug interactions (Van der Borght, K., Tourny, A., Bagdziunas, R. et al. BIGL: Biochemically Intuitive Generalized Loewe null model for prediction of the expected combined effect compatible with partial agonism and antagonism. Sci Rep 7, 17935 (2017); Thas, O., Tourny, A., Verbist, B., Hawinkel, S., Nazarov, M., Mutambanengwe, K., & Bijnens, L. Statistical detection of synergy: new methods and a comparative study. Pharmaceutical Statistics (2021)).
Synergy matrix results of the BIGL analysis of the cell line data with HSA as mean model calculated on the basis of the cellular metabolic activity using Cell Titer-Glo assay. Bootstrap confidence intervals are indicated. Effect sizes and their confidence intervals are shown. […] No significant average effect if zero is included in the interval.

For `CC(=O)N1CCC(CN2CC[C@@H](Cc3cn(-c4ccc(F)cc4C(=O)N(C)C(C)C)c4cncc(C)c34)C2)CC1` [Compound 51], the IC50 [1] was 24 nM, the “Effect size (BIGL, HSA null model)” value ([2]; Compound 51 0.001 μM, Decitabine 0.0015 μM, Venetoclax 0.0001 μM) was −0.03 and the “Effect size (BIGL, HSA null model)” value ([2]; Compound 51 0.001 μM, Decitabine 0.015 μM, Venetoclax 0.001 μM) was −0.1. The “Effect size (BIGL, HSA null model)” value ([2]; Compound 51 0.001 μM, Decitabine 0.15 μM, Venetoclax 0.002 μM) was −0.05, the “Effect size (BIGL, HSA null model)” value ([2]; Compound 51 0.001 μM, Decitabine 1.5 μM, Venetoclax 0.02 μM) was 0 and the “Effect size (BIGL, HSA null model)” value ([2]; Compound 51 0.001 μM, Decitabine 3 μM, Venetoclax 0.2 μM) was 0. For the same molecule, the “Effect size (BIGL, HSA null model)” value ([2]; Compound 51 0.01 μM, Decitabine 0.0015 μM, Venetoclax 0.0001 μM) was −0.01, the “Effect size (BIGL, HSA null model)” value ([2]; Compound 51 0.01 μM, Decitabine 0.015 μM, Venetoclax 0.001 μM) was −0.31 and the “Effect size (BIGL, HSA null model)” value ([2]; Compound 51 0.01 μM, Decitabine 0.15 μM, Venetoclax 0.002 μM) was −0.06. For the same molecule, the “Effect size (BIGL, HSA null model)” value ([2]; Compound 51 0.01 μM, Decitabine 1.5 μM, Venetoclax 0.02 μM) was −0.01, the “Effect size (BIGL, HSA null model)” value ([2]; Compound 51 0.01 μM, Decitabine 3 μM, Venetoclax 0.2 μM) was 0 and the “Effect size (BIGL, HSA null model)” value ([2]; Compound 51 0.05 μM, Decitabine 0.0015 μM, Venetoclax 0.0001 μM) was 0.02. The “Effect size (BIGL, HSA null model)” value ([2]; Compound 51 0.05 μM, Decitabine 0.015 μM, Venetoclax 0.001 μM) was 0.01, the “Effect size (BIGL, HSA null model)” value ([2]; Compound 51 0.05 μM, Decitabine 0.15 μM, Venetoclax 0.002 μM) was −0.09 and the “Effect size (BIGL, HSA null model)” value ([2]; Compound 51 0.05 μM, Decitabine 1.5 μM, Venetoclax 0.02 μM) was −0.01. The “Effect size (BIGL, HSA null model)” value ([2]; Compound 51 0.05 μM, Decitabine 3 μM, Venetoclax 0.2 μM) was 0, the “Effect size (BIGL, HSA null model)” value ([2]; Compound 51 0.1 μM, Decitabine 0.0015 μM, Venetoclax 0.0001 μM) was 0.03 and the “Effect size (BIGL, HSA null model)” value ([2]; Compound 51 0.1 μM, Decitabine 0.015 μM, Venetoclax 0.001 μM) was 0.09. The “Effect size (BIGL, HSA null model)” value ([2]; Compound 51 0.1 μM, Decitabine 0.15 μM, Venetoclax 0.002 μM) was −0.06, the “Effect size (BIGL, HSA null model)” value ([2]; Compound 51 0.1 μM, Decitabine 1.5 μM, Venetoclax 0.02 μM) was −0.01 and the “Effect size (BIGL, HSA null model)” value ([2]; Compound 51 0.1 μM, Decitabine 3 μM, Venetoclax 0.2 μM) was 0. The “Effect size (BIGL, HSA null model)” value ([2]; Compound 51 0.5 μM, Decitabine 0.0015 μM, Venetoclax 0.0001 μM) was 0.03, the “Effect size (BIGL, HSA null model)” value ([2]; Compound 51 0.5 μM, Decitabine 0.015 μM, Venetoclax 0.001 μM) was 0.12 and the “Effect size (BIGL, HSA null model)” value ([2]; Compound 51 0.5 μM, Decitabine 0.15 μM, Venetoclax 0.002 μM) was 0.01. For the same molecule, the “Effect size (BIGL, HSA null model)” value ([2]; Compound 51 0.5 μM, Decitabine 1.5 μM, Venetoclax 0.02 μM) was −0.01, the “Effect size (BIGL, HSA null model)” value ([2]; Compound 51 0.5 μM, Decitabine 3 μM, Venetoclax 0.2 μM) was 0 and the “Effect size (BIGL, HSA null model)” value ([2]; Compound 51 1 μM, Decitabine 0.0015 μM, Venetoclax 0.0001 μM) was 0.02. For the same molecule, the “Effect size (BIGL, HSA null model)” value ([2]; Compound 51 1 μM, Decitabine 0.015 μM, Venetoclax 0.001 μM) was 0.11, the “Effect size (BIGL, HSA null model)” value ([2]; Compound 51 1 μM, Decitabine 0.15 μM, Venetoclax 0.002 μM) was 0 and the “Effect size (BIGL, HSA null model)” value ([2]; Compound 51 1 μM, Decitabine 1.5 μM, Venetoclax 0.02 μM) was 0. For the same molecule, the “Effect size (BIGL, HSA null model)” value ([2]; Compound 51 1 μM, Decitabine 3 μM, Venetoclax 0.2 μM) was 0.03 and the “combination effect on proliferation (in words)” value ([2]; Compound 51 with Decitabine in the presence of Venetoclax, OCI-AML3 (NPM1c), 6-day CellTiter-Glo) was “not antagonistically cytotoxic”.
